Laboratory results as given in patent US10159640B2, “Prebiotic oral care compositions containing amino acids” (COLGATE-PALMOLIVE COMPANY, priority 2013, dated 2018).

Experiments:
Assay type in all cases: cell-based
[1] = tested on: beneficial oral bacteria and pathogenic oral bacteria; assay: Metabolic activity, whole panel: prebiotic effect; conditions: for prebiotic effects (metabolic activity): threshold value of 2
Description: Substrates that were able to increase the metabolic activity of at least one of the above beneficial bacteria while not or only minimally increasing the growth of the pathogenic bacteria are considered to be prebiotic substrates. The extent of metabolic activity of the tested bacteria in the presence of the above-mentioned dipeptides after 24 hours and 48 hours was investigated through a high throughput phenotype microarray system (PM) for microbial cells (Biolog Inc.). Each PM can contain up to 95 different biochemical compounds (e.g. di-peptides) that may act as substrates for bacteria as well as one negative control, not containing the substrates. Microarray plates were used in which the different wells of each plate were pre-loaded (by the manufacturer, Biolog Inc.) with different di-peptides to be tested. Each bacterial species was tested using a separate microarray plate. Thus, a single bacterial species was tested with a variety of dipeptides on each particular plate. The microarrays are based on redox technology, using cell respiration as a universal reporter. Active cell respiration results in the reduction of a tetrazolium dye and in the formation of a strong color—for example, when using the tetrazolium dye “Biolog Redox Dye Mix D”, the color changes from transparent/colourless to purple when the dye is reduced. The observation of this color change indicates which of the substrates improve the metabolic activity and health of the cells. Each bacterial species was collected from blood agar plates (incubated for 48 hours anaerobically at 37° C.) and transferred to an IF-0 Base inoculation fluid (Biolog Inc.), which is a nutritionally poor medium. The resulting cell suspension was adjusted to a transmittance of 42% (relative to the transmittance of the base inoculation fluid with no bacterial species present) at 492 nm using a BioRad SmartSpec 3000 Photometer (the adjustment being effected by adding either further inoculation fluid or further bacteria until the transmittance of 42% was achieved). A 1:5 dilution of this suspension was prepared by mixing 3 mL of the 42% transmittance cell suspension with 15 mL of an inoculation fluid (which inoculation fluid was formed by mixing 11.6 mL sterile water, 62.5 mL IF-0 base inoculation fluid and 0.9 mL of the tetrazolium dye “Biolog Redox Dye mix D”), resulting in a final cell density which was equal to 85% transmittance using a BioRad SmartSpec 3000 Photometer. 680 μL of a 2M sodium succinate/200 μM ferric citrate solution in distilled water was added to 68 mL of the 85% transmittance cell suspension and 100 μL of this mixture was added to each well (the various di-peptides being already present in powder form in the relevant wells of the plate as obtained from the supplier i.e. Biolog Inc.). All plates were incubated in an anaerobic atmosphere at 37° C. Color changes were measured spectrophotometrically at 492 nm (Thermo Scientific Multiskan Ascent) at 24 hrs and 48 hrs using the same plate at both time points. […] After 24 hrs and 48 hrs under continuous shaking in a Multiscan microplate reader, the optical density (OD) of the synthetic medium at 24 hours and 48 hours was measured (using the microplate reader) at a wavelength of 492 nm for each combination of bacterium/dipeptide, and for each of their respective controls (i.e. which contained the particular bacterium but no dipeptide). […] The experiment was carried out three times for each combination of bacterium with dipeptide, with each repeat being carried out on a different day (thus providing three biological replicas). The controls were also carried out three times, as above. The values shown are the average (mean) of the three single values obtained (as detailed above) for each combination of bacterium with dipeptide, at 24 hrs and at 48 hrs. […] This value was selected in order to exclude low-stimulating metabolites and avoid false positive results.

Actinomyces naeslundii = assay: Metabolic activity, Biolog phenotype microarray; conditions: control without dipeptide = 1
Description: (§1) The extent of metabolic activity of the tested bacteria in the presence of the above-mentioned dipeptides after 24 hours and 48 hours was investigated through a high throughput phenotype microarray system (PM) for microbial cells (Biolog Inc.). Each PM can contain up to 95 different biochemical compounds (e.g. di-peptides) that may act as substrates for bacteria as well as one negative control, not containing the substrates. Microarray plates were used in which the different wells of each plate were pre-loaded (by the manufacturer, Biolog Inc.) with different di-peptides to be tested. Each bacterial species was tested using a separate microarray plate. Thus, a single bacterial species was tested with a variety of dipeptides on each particular plate. The microarrays are based on redox technology, using cell respiration as a universal reporter. Active cell respiration results in the reduction of a tetrazolium dye and in the formation of a strong color—for example, when using the tetrazolium dye “Biolog Redox Dye Mix D”, the color changes from transparent/colourless to purple when the dye is reduced. The observation of this color change indicates which of the substrates improve the metabolic activity and health of the cells. Each bacterial species was collected from blood agar plates (incubated for 48 hours anaerobically at 37° C.) and transferred to an IF-0 Base inoculation fluid (Biolog Inc.), which is a nutritionally poor medium. The resulting cell suspension was adjusted to a transmittance of 42% (relative to the transmittance of the base inoculation fluid with no bacterial species present) at 492 nm using a BioRad SmartSpec 3000 Photometer (the adjustment being effected by adding either further inoculation fluid or further bacteria until the transmittance of 42% was achieved). A 1:5 dilution of this suspension was prepared by mixing 3 mL of the 42% transmittance cell suspension with 15 mL of an inoculation fluid (which inoculation fluid was formed by mixing 11.6 mL sterile water, 62.5 mL IF-0 base inoculation fluid and 0.9 mL of the tetrazolium dye “Biolog Redox Dye mix D”), resulting in a final cell density which was equal to 85% transmittance using a BioRad SmartSpec 3000 Photometer. 680 μL of a 2M sodium succinate/200 μM ferric citrate solution in distilled water was added to 68 mL of the 85% transmittance cell suspension and 100 μL of this mixture was added to each well (the various di-peptides being already present in powder form in the relevant wells of the plate as obtained from the supplier i.e. Biolog Inc.). All plates were incubated in an anaerobic atmosphere at 37° C. Color changes were measured spectrophotometrically at 492 nm (Thermo Scientific Multiskan Ascent) at 24 hrs and 48 hrs using the same plate at both time points. […] After 24 hrs and 48 hrs under continuous shaking in a Multiscan microplate reader, the optical density (OD) of the synthetic medium at 24 hours and 48 hours was measured (using the microplate reader) at a wavelength of 492 nm for each combination of bacterium/dipeptide, and for each of their respective controls (i.e. which contained the particular bacterium but no dipeptide). […] The experiment was carried out three times for each combination of bacterium with dipeptide, with each repeat being carried out on a different day (thus providing three biological replicas). The controls were also carried out three times, as above. The values shown are the average (mean) of the three single values obtained (as detailed above) for each combination of bacterium with dipeptide, at 24 hrs and at 48 hrs.

Actinomyces viscosus = assay: Metabolic activity, Biolog phenotype microarray; conditions: control without dipeptide = 1
Description: as §1

Streptococcus sanguinis = assay: Metabolic activity, Biolog phenotype microarray; conditions: control without dipeptide = 1
Description: as §1

Fusobacterium nucleatum = assay: Metabolic activity, Biolog phenotype microarray; conditions: control without dipeptide = 1
Description: as §1

[2] = tested on: Aggregatibacter actinomycetemcomitans; assay: Metabolic activity, Biolog phenotype microarray; conditions: control without dipeptide = 1
Description: as §1

Streptococcus mutans = assay: Metabolic activity, Biolog phenotype microarray; conditions: control without dipeptide = 1
Description: as §1

Tannerella forsythia = assay: Metabolic activity, Biolog phenotype microarray; conditions: control without dipeptide = 1
Description: as §1

Capnocytophaga sputigena = assay: Metabolic activity, Biolog phenotype microarray; conditions: control without dipeptide = 1
Description: as §1

Streptococcus gordonii = assay: Metabolic activity, Biolog phenotype microarray; conditions: control without dipeptide = 1
Description: as §1

Streptococcus sobrinus = assay: Metabolic activity, Biolog phenotype microarray; conditions: control without dipeptide = 1
Description: as §1

Streptococcus mitis = assay: Metabolic activity, Biolog phenotype microarray; conditions: control without dipeptide = 1
Description: as §1

Streptococcus salivarius = assay: Metabolic activity, Biolog phenotype microarray; conditions: control without dipeptide = 1
Description: as §1

Veillonella parvula = assay: Metabolic activity, Biolog phenotype microarray; conditions: control without dipeptide = 1
Description: as §1

Prevotella intermedia = assay: Metabolic activity, Biolog phenotype microarray; conditions: control without dipeptide = 1
Description: as §1

Porphyromonas gingivalis = assay: Metabolic activity, Biolog phenotype microarray; conditions: control without dipeptide = 1
Description: as §1

Row | Substance | prebiotic effects (metabolic activity) ([1]; 24 hrs) | metabolic activity: OD 492 nm divided by OD of control (Actinomyces naeslundii; 24 hrs) | metabolic activity: OD 492 nm divided by OD of control (Actinomyces naeslundii; 48 hrs) | metabolic activity: OD 492 nm divided by OD of control (Actinomyces viscosus; 24 hrs) | metabolic activity: OD 492 nm divided by OD of control (Actinomyces viscosus; 48 hrs) | metabolic activity: OD 492 nm divided by OD of control (Streptococcus sanguinis; 24 hrs) | metabolic activity: OD 492 nm divided by OD of control (Streptococcus sanguinis; 48 hrs) | metabolic activity: OD 492 nm divided by OD of control (Fusobacterium nucleatum; 24 hrs) | metabolic activity: OD 492 nm divided by OD of control (Fusobacterium nucleatum; 48 hrs) | metabolic activity: OD 492 nm divided by OD of control ([2]; 24 hrs) | metabolic activity: OD 492 nm divided by OD of control ([2]; 48 hrs) | metabolic activity: OD 492 nm divided by OD of control (Streptococcus mutans; 24 hrs) | metabolic activity: OD 492 nm divided by OD of control (Streptococcus mutans; 48 hrs) | metabolic activity: OD 492 nm divided by OD of control (Tannerella forsythia; 24 hrs) | metabolic activity: OD 492 nm divided by OD of control (Tannerella forsythia; 48 hrs) | metabolic activity: OD 492 nm divided by OD of control (Capnocytophaga sputigena; 24 hrs) | metabolic activity: OD 492 nm divided by OD of control (Capnocytophaga sputigena; 48 hrs) | metabolic activity: OD 492 nm divided by OD of control (Streptococcus gordonii; 24 hrs) | metabolic activity: OD 492 nm divided by OD of control (Streptococcus gordonii; 48 hrs) | metabolic activity: OD 492 nm divided by OD of control (Streptococcus sobrinus; 24 hrs) | further results
1 | Ser-Gln | exhibited prebiotic effects | 1.2183 | 1.5857 | 1.6173 | 2.0308 | 1.1901 | 1.6298 | 1.2502 | 1.6185 | 0.9996 | 1.1574 | 1.2511 | 1.7642 | 1.1929 | 1.4647 | 2.2409 | 1.6963 | 0.9754 | 1.4584 | 1.1504 | prebiotic effects (metabolic activity) ([1]; 48 hrs): exhibited prebiotic effects; metabolic activity: OD 492 nm divided by OD of control (Streptococcus sobrinus; 48 hrs): 1.6280; metabolic activity: OD 492 nm divided by OD of control (Streptococcus mitis; 24 hrs): 1.0595; metabolic activity: OD 492 nm divided by OD of control (Streptococcus mitis; 48 hrs): 1.5980; metabolic activity: OD 492 nm divided by OD of control (Streptococcus salivarius; 24 hrs): 1.1847; metabolic activity: OD 492 nm divided by OD of control (Streptococcus salivarius; 48 hrs): 1.6185; metabolic activity: OD 492 nm divided by OD of control (Veillonella parvula; 24 hrs): 0.8812; metabolic activity: OD 492 nm divided by OD of control (Veillonella parvula; 48 hrs): 0.8706; metabolic activity: OD 492 nm divided by OD of control (Prevotella intermedia; 24 hrs): 1.2382; metabolic activity: OD 492 nm divided by OD of control (Prevotella intermedia; 48 hrs): 1.3661; metabolic activity: OD 492 nm divided by OD of control (Porphyromonas gingivalis; 24 hrs): 1.1453; metabolic activity: OD 492 nm divided by OD of control (Porphyromonas gingivalis; 48 hrs): 1.4999
2 | Ser-Leu | exhibited prebiotic effects | 1.4949 | 1.8831 | 2.2523 | 2.5540 | 1.2625 | 1.6049 | 1.4813 | 1.7358 | 1.6871 | 2.2912 | 1.6244 | 2.2977 | 1.3950 | 1.8466 | 1.9645 | 1.6522 | 1.5333 | 1.8912 | 1.4887 | speed of metabolism by beneficial versus pathogenic bacteria ([1]; value of 2 reached at 24 hrs for beneficial but not pathogenic bacteria): metabolized faster by the beneficial bacteria than by the pathogenic bacteria; metabolic activity: OD 492 nm divided by OD of control (Streptococcus sobrinus; 48 hrs): 2.0704; metabolic activity: OD 492 nm divided by OD of control (Streptococcus mitis; 24 hrs): 1.6052; metabolic activity: OD 492 nm divided by OD of control (Streptococcus mitis; 48 hrs): 2.0461; metabolic activity: OD 492 nm divided by OD of control (Streptococcus salivarius; 24 hrs): 1.4865; metabolic activity: OD 492 nm divided by OD of control (Streptococcus salivarius; 48 hrs): 2.0833; metabolic activity: OD 492 nm divided by OD of control (Veillonella parvula; 24 hrs): 1.4153; metabolic activity: OD 492 nm divided by OD of control (Veillonella parvula; 48 hrs): 1.4281; metabolic activity: OD 492 nm divided by OD of control (Prevotella intermedia; 24 hrs): 1.5403; metabolic activity: OD 492 nm divided by OD of control (Prevotella intermedia; 48 hrs): 1.8484; metabolic activity: OD 492 nm divided by OD of control (Porphyromonas gingivalis; 24 hrs): 1.4626; metabolic activity: OD 492 nm divided by OD of control (Porphyromonas gingivalis; 48 hrs): 1.8440
